Measured values: US20250206730A1 (AUTOTELIC BIO INC., priority 2022, published 2025)

What was measured:
TGF-β signaling = test: Assay for evaluating cellular inhibition of TGF-β signaling, 4T1 (SBE-luc2P) luciferase reporter; assay type: cell-based; details: Mus musculus, 4T1, 4T1 (SBE-luc2P) transient pool, 0.2% FBS, 2 h pre-treatment, TGF-β1 2 ng/mL 24 h; read-out: IC50 4T1 Cell
In short: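 4T1 cells transiently carrying SBE-luc2P (6×10^3/well, 0.2% FBS, ~60% confluence) or HEK293 SBE-reporter stable cells (2.5×10^4/well, 0.5% FBS, ~80% confluence) pre-treated with compound for 2 h. TGF-β1 (2 ng/mL) then added for 24 h at 37 °C; luciferase luminescence read from lysates.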

ALK5 kinase = molecular target: T1, ALK5 kinase (Homo sapiens, UniProt P36897); test: LanthaScreen Eu Kinase Binding Assay; details: Kinase Tracer 178, Eu-anti-GST Antibody, read-out: IC50 Enzyme
T1 sequence (P36897 34-503): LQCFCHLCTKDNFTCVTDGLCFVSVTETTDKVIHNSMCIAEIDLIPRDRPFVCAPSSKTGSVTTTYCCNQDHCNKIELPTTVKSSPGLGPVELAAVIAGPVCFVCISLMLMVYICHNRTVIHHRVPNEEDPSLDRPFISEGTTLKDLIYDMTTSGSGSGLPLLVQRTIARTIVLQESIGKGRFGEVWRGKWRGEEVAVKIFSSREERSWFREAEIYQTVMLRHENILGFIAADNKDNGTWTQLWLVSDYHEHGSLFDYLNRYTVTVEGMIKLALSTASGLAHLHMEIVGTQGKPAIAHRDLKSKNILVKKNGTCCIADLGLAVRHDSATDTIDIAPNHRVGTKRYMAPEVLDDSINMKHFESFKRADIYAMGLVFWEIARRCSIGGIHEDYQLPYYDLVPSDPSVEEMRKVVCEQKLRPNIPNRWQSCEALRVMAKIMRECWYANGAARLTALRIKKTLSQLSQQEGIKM
In short: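 Compound (1% DMSO final) preincubated 30 min at RT with GST-tagged ALK5, then Eu-anti-GST antibody and Kinase Tracer 178 added for 60 min at RT. TR-FRET read at 340 nm excitation; 665/615 nm emission ratio falls as compound binding rises.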

SMILES | IC50 (TGF-β signaling) | IC50 (ALK5 kinase)
NC(=O)c1ccc(Nc2cc(Oc3sc(C(F)(F)F)nc3-c3ccccc3)ccn2)nc1 [A-146, 6-((4-((4-Phenyl-2-(trifluoromethyl)thiazol-5-yl)oxy)pyridin-2-yl)amino)nicotinamide] | < 100 nM | < 100 nM
NC(=O)c1ccc(Nc2cc(Oc3sc(C(F)(F)F)nc3-c3ccccc3)ccn2)cc1 [A-147, 4-((4-((4-Phenyl-2-(trifluoromethyl)thiazol-5-yl)oxy)pyridin-2-yl)amino)benzamide] | < 100 nM | < 100 nM
CNC(=O)c1ccc(Nc2cc(Oc3sc(C(F)(F)F)nc3-c3ccccc3)ccn2)cc1 [A-148, N-Methyl-4-((4-((4-phenyl-2-(trifluoromethyl)thiazol-5-yl)oxy)pyridin-2-yl)amino)benzamide] | < 100 nM | < 100 nM
O=C(O)c1ccc(Nc2cc(Oc3sc(C(F)(F)F)nc3-c3ccccc3)ccn2)nc1 [A-149, 6-((4-((4-Phenyl-2-(trifluoromethyl)thiazol-5-yl)oxy)pyridin-2-yl)amino)nicotinic acid] | < 100 nM | < 100 nM
CNC(=O)c1ccc(Nc2cc(Oc3sc(C(F)(F)F)nc3-c3ccccc3)ccn2)nc1 [A-150, N-Methyl-6-((4-((4-phenyl-2-(trifluoromethyl)thiazol-5-yl)oxy)pyridin-2-yl)amino)nicotinamide] | < 100 nM | < 100 nM
O=C(O)c1cccc(Nc2cc(Oc3sc(C(F)(F)F)nc3-c3ccccc3)ccn2)c1 [A-151, 3-((4-((4-Phenyl-2-(trifluoromethyl)thiazol-5-yl)oxy)pyridin-2-yl)amino)benzoic acid] | > 100 nM | < 100 nM
O=C(O)c1ccc(Nc2cc(Oc3sc(C(F)(F)F)nc3-c3ccccc3)ccn2)cc1 [A-152, 4-((4-((4-Phenyl-2-(trifluoromethyl)thiazol-5-yl)oxy)pyridin-2-yl)amino)benzoic acid] | < 100 nM | < 100 nM
CN(C)c1nc(-c2ccccc2)c(Oc2ccnc(Nc3cccc(C(C)(C)O)c3)c2)s1 [A-153, 2-(3-((4-((2-(Dimethylamino)-4-phenylthiazol-5-yl)oxy)pyridin-2-yl)amino)phenyl)propan-2-ol] | > 100 nM | < 100 nM
CN(C)c1nc(-c2ccccc2)c(Oc2ccnc(Nc3cccc(S(N)(=O)=O)c3)c2)s1 [A-154, 3-((4-((2-(Dimethylamino)-4-phenylthiazol-5-yl)oxy)pyridin-2-yl)amino)benzenesulfonamide] | > 100 nM | < 100 nM
CN(C)c1nc(-c2ccccc2)c(Oc2ccnc(Nc3cccc(C(N)=O)c3)c2)s1 [A-155, 3-((4-((2-(Dimethylamino)-4-phenylthiazol-5-yl)oxy)pyridin-2-yl)amino)benzamide] | < 100 nM | < 100 nM
CN(C)c1nc(-c2ccccc2)c(Oc2ccnc(Nc3ccc(S(N)(=O)=O)cc3)c2)s1 [A-156, 4-((4-((2-(Dimethylamino)-4-phenylthiazol-5-yl)oxy)pyridin-2-yl)amino)benzenesulfonamide] | > 100 nM | < 100 nM
CN(C)c1nc(-c2ccccc2)c(Oc2ccnc(Nc3ccc(C(N)=O)cc3)c2)s1 [A-157, 4-((4-((2-(Dimethylamino)-4-phenylthiazol-5-yl)oxy)pyridin-2-yl)amino)benzamide] | < 100 nM | < 100 nM
CN(C)c1nc(-c2ccccc2)c(Oc2ccnc(Nc3ccnc(C(C)(C)O)c3)c2)s1 [A-158, 2-(4-((4-((2-(Dimethylamino)-4-phenylthiazol-5-yl)oxy)pyridin-2-yl)amino)pyridin-2-yl)propan-2-ol] | > 100 nM | < 100 nM
CN(C)c1nc(-c2ccccc2)c(Oc2ccnc(Nc3ccc(C(C)(C)O)nc3)c2)s1 [A-159, 2-(5-((4-((2-(Dimethylamino)-4-phenylthiazol-5-yl)oxy)pyridin-2-yl)amino)pyridin-2-yl)propan-2-ol] | > 100 nM | < 100 nM
CN(C)c1nc(-c2ccccc2)c(Oc2ccnc(Nc3cccc(C(N)=O)n3)c2)s1 [A-160, 6-((4-((2-(Dimethylamino)-4-phenylthiazol-5-yl)oxy)pyridin-2-yl)amino)picolinamide] | < 100 nM | < 100 nM
CNC(=O)c1cccc(Nc2cc(Oc3sc(N(C)C)nc3-c3ccccc3)ccn2)n1 [A-161, 6-((4-((2-(Dimethylamino)-4-phenylthiazol-5-yl)oxy)pyridin-2-yl)amino)-N-methylpicolinamide] | < 100 nM | < 100 nM

SMILES | IC50 (TGF-β signaling) | IC50 (ALK5 kinase)
CN(C)c1nc(-c2ccccc2)c(Oc2ccnc(Nc3ccc(C(N)=O)cn3)c2)s1 [A-163, 6-((4-((2-(Dimethylamino)-4-phenylthiazol-5-yl)oxy)pyridin-2-yl)amino)nicotinamide] | < 100 nM | < 100 nM
CNC(=O)c1ccc(Nc2cc(Oc3sc(N(C)C)nc3-c3ccccc3)ccn2)cc1 [A-164, 4-((4-((2-(Dimethylamino)-4-phenylthiazol-5-yl)oxy)pyridin-2-yl)amino)-N-methylbenzamide] | > 100 nM | < 100 nM
CN(C)c1nc(-c2ccccc2)c(Oc2ccnc(Nc3ccc(C(=O)O)cn3)c2)s1 [A-165, 6-((4-((2-(Dimethylamino)-4-phenylthiazol-5-yl)oxy)pyridin-2-yl)amino)nicotinic acid] | < 100 nM | < 100 nM
CNC(=O)c1ccc(Nc2cc(Oc3sc(N(C)C)nc3-c3ccccc3)ccn2)nc1 [A-166, 6-((4-((2-(Dimethylamino)-4-phenylthiazol-5-yl)oxy)pyridin-2-yl)amino)-N-methylnicotinamide] | < 100 nM | < 100 nM
CN(C)c1nc(-c2ccccc2)c(Oc2ccnc(Nc3cccc(C(=O)O)c3)c2)s1 [A-167, 3-((4-((2-(Dimethylamino)-4-phenylthiazol-5-yl)oxy)pyridin-2-yl)amino)benzoic acid] | > 100 nM | < 100 nM
CN(C)c1nc(-c2ccccc2)c(Oc2ccnc(Nc3ccc(C(=O)O)cc3)c2)s1 [A-168, 4-((4-((2-(Dimethylamino)-4-phenylthiazol-5-yl)oxy)pyridin-2-yl)amino)benzoic acid] | < 100 nM | < 100 nM
CN(C)c1nc(-c2ccccc2)c(Oc2ccnc(Nc3cccc(C(=O)O)n3)c2)s1 [A-169, 6-((4-((2-(Dimethylamino)-4-phenylthiazol-5-yl)oxy)pyridin-2-yl)amino)picolinic acid] | > 100 nM | < 100 nM
COC(=O)c1cccc(Nc2cc(Oc3sc(Br)nc3-c3ccccc3)ccn2)c1 [A-170, Methyl 3-((4-((2-bromo-4-phenylthiazol-5-yl)oxy)pyridin-2-yl)amino)benzoate] | > 100 nM | < 100 nM
O=C(O)c1cccc(Nc2cc(Oc3sc(Br)nc3-c3ccccc3)ccn2)c1 [A-171, 3-((4-((2-Bromo-4-phenylthiazol-5-yl)oxy)pyridin-2-yl)amino)benzoic acid] | > 100 nM | < 100 nM
NC(=O)c1cccc(Nc2cc(Oc3sc(Br)nc3-c3ccccc3)ccn2)c1 [A-172, 3-((4-((2-Bromo-4-phenylthiazol-5-yl)oxy)pyridin-2-yl)amino)benzamide] | > 100 nM | > 100 nM
O=C(O)c1ccc(Nc2cc(Oc3sc(C4CCCC4)nc3-c3ccccc3)ccn2)nc1 [A-174, 6-((4-((2-Cyclopentyl-4-phenylthiazol-5-yl)oxy)pyridin-2-yl)amino)nicotinic acid] | > 100 nM | < 100 nM
O=C(O)c1ccc(Nc2cc(Oc3sc(C4CCCC4)nc3-c3ccccc3)ccn2)cc1 [A-175, 4-((4-((2-Cyclopentyl-4-phenylthiazol-5-yl)oxy)pyridin-2-yl)amino)benzoic acid] | > 100 nM | < 100 nM
CNC(=O)c1ccc(Nc2cc(Oc3sc(C4CCCC4)nc3-c3ccccc3)ccn2)nc1 [A-176, 6-((4-((2-Cyclopentyl-4-phenylthiazol-5-yl)oxy)pyridin-2-yl)amino)-N-methylnicotinamide] | > 100 nM | > 100 nM
NC(=O)c1ccc(Nc2cc(Oc3sc(C4CCCCC4)nc3-c3ccccc3)ccn2)nc1 [A-177, 6-((4-((2-Cyclohexyl-4-phenylthiazol-5-yl)oxy)pyridin-2-yl)amino)nicotinamide] | > 100 nM | > 100 nM
O=C(O)c1ccc(Nc2cc(Oc3sc(C4CCCCC4)nc3-c3ccccc3)ccn2)nc1 [A-178, 6-((4-((2-cyclohexyl-4-phenylthiazol-5-yl)oxy)pyridin-2-yl)amino)nicotinic acid] | > 100 nM | > 100 nM
O=C(O)c1ccc(Nc2cc(Oc3sc(C4CCCCC4)nc3-c3ccccc3)ccn2)cc1 [A-179, 4-((4-((2-Cyclohexyl-4-phenylthiazol-5-yl)oxy)pyridin-2-yl)amino)benzoic acid] | > 100 nM | > 100 nM
